Results as given in patent publication US7919295B2, “Polyol oxidases” (Danisco US Inc., priority 2006, dated 2011).

System: Sorbitol oxidase
Test: Substrate range study of sorbitol oxidase (relative POx activities for substrates)
Type: biochemical, Streptomyces sp. H-7775
[1] = substrates 50 mM in 10 mM phosphate buffer pH 7.0, relative to sorbitol

Method: All substrates used in the assay were 50 mM in 10 mM phosphate buffer pH 7.0.

## OC[C@@H](O)[C@@H](O)[C@H](O)[C@@H](O)CO [D-Sorbitol]
[1]
  Relative Activity (+, 0): ++++++ (++++++=100%)

## OCCO [Ethylene glycol]
pH 7
  Relative Activity (+, 0): 0

## CC(O)CO (stereo not drawn) [Propylene glycol]
[1]
  Relative Activity (+, 0): 0
